Among the data in PubChem BioAssay AID328 (DTP/NCI, 2004) are T/C values, retold here.

For this assay, the system named is BDF1 mice, P388 leukemia ip, median survival T/C. As to the kind of experiment: NCI In Vivo Anticancer Drug Screen. Data for tumor model P388 Leukemia (intraperitoneal) in B6D2F1 (BDF1) mice. To be noted: endpoint: median survival time, higher = longer survival. A digest of the protocol:
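Reported as T/C, where T is the survival measurement in dosed animals and C the same measurement in vehicle controls.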

Setting [1] is: dose: 50.0 mg/kg/injection, schedule: Q01DX009 (ip), vehicle: saline with Tween-80.
Setting [2] is: dose: 50.0 mg/kg/injection, schedule: Q04DX003 (ip), vehicle: saline with Tween-80.
Where [3] appears, read: dose: 100.0 mg/kg/injection, schedule: Q01DX009 (ip), vehicle: saline with Tween-80.
Where [4] appears, read: dose: 100.0 mg/kg/injection, schedule: Q04DX003 (ip), vehicle: saline with Tween-80.
The mark [5] stands for this setting: dose: 200.0 mg/kg/injection, schedule: Q04DX003 (ip), vehicle: saline with Tween-80.
Setting [6] is: dose: 25.0 mg/kg/injection, schedule: Q01DX009 (ip), vehicle: saline with Tween-80.
[7] abbreviates: dose: 12.5 mg/kg/injection, schedule: Q01DX009 (ip), vehicle: Klucel (hydroxypropylcellulose) (HPC).
Setting [8] is: dose: 25.0 mg/kg/injection, schedule: Q01DX009 (ip), vehicle: Klucel (hydroxypropylcellulose) (HPC).

Where “and” joins values, the source holds several entries; their conditions need not be identical. Equal entries are not always repeated. Toxic doses and inconclusive results are not listed.

Consider `Nc1nccnc1N`, for which the T/C runs as follows: under setting [1], 110 % of control; under setting [2], 95 % of control; under setting [3], 115 % of control; under setting [4], 100 % of control; (dose: 200.0 mg/kg/injection, schedule: Q01DX009 (ip), vehicle: saline with Tween-80) 120 % of control; under setting [5], 87 % of control.

On to `CN1CC=Nc2c1nc(N)[nH]c2=O`, for which the T/C is 109 % of control (dose: 12.5 mg/kg/injection, schedule: Q01DX009 (ip), vehicle: saline with Tween-80); 107 % of control under setting [6]; 102 % of control under setting [1].

For the compound `CC(=O)Nc1c(Cl)c(Cl)c2c(c1Cl)Cc1cc(Br)ccc1-2`, the T/C by setting is: (dose: 8.25 mg/kg/injection, schedule: Q01DX009 (ip), vehicle: Klucel (hydroxypropylcellulose) (HPC)) 100 % of control and 113 % of control; under setting [7], 100 % of control and 118 % of control; (dose: 18.75 mg/kg/injection, schedule: Q01DX009 (ip), vehicle: Klucel (hydroxypropylcellulose) (HPC)) 100 % of control and 109 % of control; under setting [8], 110 % of control; (dose: 25.0 mg/kg/injection, schedule: Q01DX009 (ip), vehicle: saline) 90 % of control; (dose: 50.0 mg/kg/injection, schedule: Q01DX009 (ip), vehicle: saline) 95 % of control.

Consider `NC(N)=NCCCCCCC(=O)Nc1ccc(S(N)(=O)=O)cc1`, for which the T/C reads like this: under setting [6], 112 % of control; under setting [1], 106 % of control; under setting [3], 97 % of control.

Turning to `O=C(CNC(=O)n1ccnc1)N/N=C/c1ccccc1O`, the T/C was 102 % of control (dose: 50.0 mg/kg/injection, schedule: Q01DX005 (ip), vehicle: saline with Tween-80); 98 % of control (dose: 100.0 mg/kg/injection, schedule: Q01DX005 (ip), vehicle: saline with Tween-80); 100 % of control (dose: 200.0 mg/kg/injection, schedule: Q01DX005 (ip), vehicle: saline with Tween-80).

As for `O=S(=O)(O)O.[Co+3].[Co+3].[NH2-].[NH2-].[NH2-].[NH2-].[NH2-].[NH2-].[NH2-].[NH2-].[NH2-].[NH2-].[O-][O-]`, the T/C reads like this: (dose: 1.56 mg/kg/injection, schedule: Q01DX009 (ip), vehicle: saline) 97 % of control; (dose: 3.13 mg/kg/injection, schedule: Q01DX009 (ip), vehicle: saline) 98 % of control; (dose: 6.25 mg/kg/injection, schedule: Q01DX009 (ip), vehicle: saline) 97 % of control.

On to `CC1(c2ccc(N(CCCl)CCCl)cc2)NC(=O)NC1=O` (stereo not drawn), for which the T/C by setting is: (dose: 6.25 mg/kg/injection, schedule: Q01DX009 (ip), vehicle: Klucel (hydroxypropylcellulose) (HPC)) 121 % of control; under setting [7], 122 % of control; under setting [8], 191 % of control; (dose: 100.0 mg/kg/injection, schedule: Q01DX009 (ip), vehicle: Klucel (hydroxypropylcellulose) (HPC)) 260 % of control.

As to `OCC1CC=CCC1` (stereo not drawn), the T/C is 114 % of control (dose: 100.0 mg/kg/injection, schedule: Q01DX009 (ip), vehicle: saline); 109 % of control (dose: 200.0 mg/kg/injection, schedule: Q01DX009 (ip), vehicle: saline); 119 % of control (dose: 400.0 mg/kg/injection, schedule: Q01DX009 (ip), vehicle: saline).

For `COc1ccc(CC2c3cc(OC)c(OC)cc3CC[N+]2(C)C)cc1OC` (stereo not drawn), the T/C by setting is: (dose: 12.5 mg/kg/injection, schedule: Q01DX009 (ip), vehicle: saline sonified) 108 % of control; (dose: 25.0 mg/kg/injection, schedule: Q01DX009 (ip), vehicle: saline sonified) 100 % of control; (dose: 50.0 mg/kg/injection, schedule: Q01DX009 (ip), vehicle: saline sonified) 91 % of control.

As to `Cc1nnc(NC2=NCCO2)s1`, the T/C is, setting by setting: (dose: 50.0 mg/kg/injection, schedule: Q04DX003 (ip), vehicle: saline) 86 % of control; (dose: 100.0 mg/kg/injection, schedule: Q04DX003 (ip), vehicle: saline) 90 % of control; (dose: 200.0 mg/kg/injection, schedule: Q04DX003 (ip), vehicle: saline) 90 % of control.

As for `CN(C)c1ccc(CC2Cc3ccccc3C2=O)cc1` (stereo not drawn), the T/C runs as follows: (dose: 100.0 mg/kg/injection, schedule: Q01DX009 (ip), vehicle: other) 104 % of control; under setting [4], 90 % of control; (dose: 200.0 mg/kg/injection, schedule: Q01DX009 (ip), vehicle: other) 108 % of control; under setting [5], 100 % of control; (dose: 400.0 mg/kg/injection, schedule: Q04DX003 (ip), vehicle: saline with Tween-80) 95 % of control.

For `C=CCn1c(=O)n(CC=C)c(=O)n(CC=C)c1=O`, the T/C reads like this: (dose: 100.0 mg/kg/injection, schedule: Q04DX003 (ip), vehicle: alcohol) 100 % of control; (dose: 200.0 mg/kg/injection, schedule: Q04DX003 (ip), vehicle: alcohol) 104 % of control; (dose: 400.0 mg/kg/injection, schedule: Q04DX003 (ip), vehicle: alcohol) 109 % of control.

Regarding `CCC12C=CCN3CCC4(c5cc(C(CN6CCCCC6)c6cn(C)c7ccccc67)c(OC)cc5N(C)C4C(O)(C(=O)OC)C1OC(C)=O)C32` (stereo not drawn), the T/C by setting is: (dose: 4.0 mg/kg/injection, schedule: Q01DX009 (ip), vehicle: saline) 104 % of control; (dose: 8.0 mg/kg/injection, schedule: Q01DX009 (ip), vehicle: saline) 98 % of control; (dose: 16.0 mg/kg/injection, schedule: Q01DX009 (ip), vehicle: saline) 98 % of control; (dose: 32.0 mg/kg/injection, schedule: Q01DX009 (ip), vehicle: saline) 93 % of control and 116 % of control.

Turning to `N=C(N)c1ccc(Nc2ccc(C(=N)N)cc2)cc1`, the T/C was 100 % of control (dose: 3.0 mg/kg/injection, schedule: Q01DX010 (ip), vehicle: saline); 91 % of control and 95 % of control (dose: 6.0 mg/kg/injection, schedule: Q01DX010 (ip), vehicle: saline); 91 % of control and 100 % of control (dose: 12.0 mg/kg/injection, schedule: Q01DX010 (ip), vehicle: saline); 95 % of control (dose: 24.0 mg/kg/injection, schedule: Q01DX010 (ip), vehicle: saline).

Take `Cc1ccc(S(=O)(=O)OC2CCCCCCCCCCC2=O)cc1` (stereo not drawn): the T/C reads like this: (dose: 25.0 mg/kg/injection, schedule: Q04DX003 (ip), vehicle: other) 99 % of control; (dose: 50.0 mg/kg/injection, schedule: Q04DX003 (ip), vehicle: other) 96 % of control; (dose: 100.0 mg/kg/injection, schedule: Q04DX003 (ip), vehicle: other) 95 % of control.

`CCOC(=O)C(Cc1ccc(N(CCCl)CCCl)cc1)NC(=O)C(CC(C)C)NC(C)=O` (stereo not drawn): the T/C (dose: 5.0 mg/kg/injection, schedule: Q04DX003 (ip), vehicle: water) was 114 % of control; the T/C (dose: 10.0 mg/kg/injection, schedule: Q04DX003 (ip), vehicle: water) was 114 % of control; the T/C (dose: 40.0 mg/kg/injection, schedule: Q04DX003 (ip), vehicle: water) is 121 % of control.

`CC1CC(C)(C)N=C(C(Cc2ccc(Br)cc2)c2ccccc2)O1` (stereo not drawn): the T/C was 95 % of control (dose: 100.0 mg/kg/injection, schedule: Q01DX001 (ip), vehicle: saline sonified); 110 % of control (dose: 200.0 mg/kg/injection, schedule: Q01DX001 (ip), vehicle: saline sonified); 110 % of control (dose: 400.0 mg/kg/injection, schedule: Q01DX001 (ip), vehicle: saline sonified).

`O=[N+]([O-])c1cccc2ccc(N/N=C/c3ccccc3O)nc12`: the T/C was 96 % of control (dose: 10.0 mg/kg/injection, schedule: Q01DX009 (ip), vehicle: Klucel (hydroxypropylcellulose) (HPC)); 122 % of control (dose: 20.0 mg/kg/injection, schedule: Q01DX009 (ip), vehicle: Klucel (hydroxypropylcellulose) (HPC)); 111 % of control (dose: 40.0 mg/kg/injection, schedule: Q01DX009 (ip), vehicle: Klucel (hydroxypropylcellulose) (HPC)).

As to `CCC(=O)c1ccc(OCC(O)CN2CCC(O)(c3ccccc3)CC2)cc1` (stereo not drawn), the T/C is 111 % of control under setting [6]; 109 % of control (dose: 25.0 mg/kg/injection, schedule: Q04DX003 (ip), vehicle: saline with Tween-80); 103 % of control under setting [1]; 109 % of control under setting [2]; 88 % of control under setting [3]; 104 % of control under setting [4].

For `COc1cccc(Sc2ccc([N+](=O)[O-])c3no[n+]([O-])c23)c1`, the T/C is, setting by setting: (dose: 30.0 mg/kg/injection, schedule: Q01DX009 (ip), vehicle: saline with Tween-80) 102 % of control; (dose: 60.0 mg/kg/injection, schedule: Q01DX009 (ip), vehicle: saline with Tween-80) 115 % of control.
